Reference: US8536167B2, “Methods for treating ophthalmic, otic, or nasal infections” (Alcon Research, Ltd., priority 2009, dated 2013)
≈ marks a conversion by molar mass, not a printed value. Like-named read-outs stand apart in the source and are kept apart here.

Experiments:
[1] = tested on: Pseudomonas aeruginosa; experiment: Rabbit keratitis model (similar test); format: in vivo, New Zealand white rabbits; settings: finafloxacin compositions compared to CILOXAN
[2] = Ocular pharmacokinetic study following topical administration; format: in vivo, New Zealand white rabbits
Procedure: FIGS. 3 and 4 present the results of ocular pharmacokinetic studies following topical administration of finafloxacin and ciprofloxacin compositions. The studies utilized New Zealand white rabbits, and 45 μl of 0.3% test composition was instilled bilaterally.

[3] = tested on: Pseudomonas otitidis; experiment: In vitro antimicrobial susceptibility test (MIC50); format: cell-based; settings: Metapseudomonas otitidis, N = 10
Procedure: (§1) A finafloxacin composition at pH 5.8 was compared to ciprofloxacin (pH 5.8) and ofloxacin (pH 5.8 and pH 7) compositions using standard in vitro antimicrobial susceptibility tests (M07-08 Methods for Dilution Antimicrobial Susceptibility Tests for Bacteria that Grow Aerobically; Approved Standard-Eighth Edition (January 2009, Clinical and Laboratory Standards Institute), herein incorporated by reference). Minimum inhibitory concentrations (MIC50) were determined using Gram-positive and Gram-negative test organisms commonly found in otic and ophthalmic infections. The MIC50 was the lowest concentration of antibiotic that prevented growth of the test organism, as determined visually by a lack of turbidity.
(§2) The results of the experiment are presented below in TABLE 1 (Gram-positive organisms) and TABLE 2 (Gram-negative organisms).

[4] = tested on: Staphylococcus epidermidis - Ciprofloxacin sensitive; experiment: In vitro antimicrobial susceptibility test (MIC50); format: cell-based
Procedure: as §1, §2

[5] = tested on: Pseudomonas aeruginosa - Ciprofloxacin sensitive; experiment: In vitro antimicrobial susceptibility test (MIC50); format: cell-based
Procedure: as §1, §2

[6] = tested on: Escherichia coli; experiment: In vitro antimicrobial susceptibility test (MIC50); format: cell-based
Procedure: as §1, §2

[7] = tested on: Enterococcus faecalis; experiment: In vitro antimicrobial susceptibility test (MIC50); format: cell-based
Procedure: as §1, §2

[8] = tested on: Haemophilia influenzae; experiment: In vitro antimicrobial susceptibility test (MIC50); format: cell-based; settings: N = 10
Procedure: as §1, §2

[9] = tested on: Pseudomonas aeruginosa - Ciprofloxacin resistant; experiment: In vitro antimicrobial susceptibility test (MIC50); format: cell-based
Procedure: as §1, §2

[10] = tested on: Proteus mirabilis; experiment: In vitro antimicrobial susceptibility test (MIC50); format: cell-based
Procedure: as §1, §2

[11] = tested on: Staphylococcus aureus - Ciprofloxacin sensitive; experiment: In vitro antimicrobial susceptibility test (MIC50); format: cell-based
Procedure: as §1, §2

[12] = tested on: Staphylococcus aureus - Ciprofloxacin resistant; experiment: In vitro antimicrobial susceptibility test (MIC50); format: cell-based
Procedure: as §1, §2

[13] = tested on: Streptococcus pneumonia; experiment: In vitro antimicrobial susceptibility test (MIC50); format: cell-based; settings: Streptococcus pneumoniae, N = 10
Procedure: as §1, §2

[14] = tested on: Staphylococcus epidermidis - Ciprofloxacin resistant; experiment: In vitro antimicrobial susceptibility test (MIC50); format: cell-based
Procedure: as §1, §2

[15] = In vivo ototoxicity study, outer ear irritation; parameters: species or system Rabbit; settings: 0.3% pH 5.7, 0.3%, 0.6%, 1.0% pH 7.5 (0.3% Mg and BAC), 0.2 mL bid for 7 days followed by 7 day observations
Text: TABLE 3 below presents the results of toxicity testing performed in two animals models (chinchilla and rabbit).

[16] = Ex vivo corneal perfusion model; format: in vitro ADME; settings: 0.1 mM test solutions at pH 7.3, ex vivo, FIG. 2
Procedure: FIG. 2 presents comparative corneal perfusion data for several quinolone antimicrobials (including finafloxacin) using an ex vivo model. 0.1 mM test solutions at pH 7.3 of four quinolone antimicrobials were compared in the model.

[17] = tested on: Pseudomonas aeruginosa; experiment: Guinea pig model of acute otitis externa (AOE); format: in vivo; settings: for eradication of Pseudomonas: 0.3% composition
Procedure: Guinea pig ears were slightly abraded and 200 μl of bacterial culture (10^8 CFU) of P. aeruginosa were instilled into each ear. Ears were lavaged with saline and plated onto Pseudomonas isolation media. FIGS. 1a-1d summarize the results of these studies. […] Lower concentration finafloxacin compositions (0.03% and 0.003%) still achieved very substantial 5-6 log reductions of Pseudomonas in the model. […] Using a lower concentration composition (0.03%, shown in FIG. 1c) finafloxacin achieved a 4 log CFU reduction in the single dose study.

[18] = at pH 5.8, N = 10, read-out: MIC50

Row | SMILES | MIC50 ([3]; at pH 5.8) | MIC50 ([4]; at pH 5.8, N = 8) | MIC50 ([5]; at pH 5.8, N = 14) | MIC50 ([6]; at pH 5.8, N = 10) | MIC50 ([7]; at pH 5.8, N = 10) | MIC50 ([8]; at pH 5.8) | MIC50 ([9]; at pH 5.8, N = 11) | MIC50 [10, 18] | MIC50 ([11]; at pH 5.8, N = 8) | MIC50 ([12]; at pH 5.8, N = 12) | MIC50 ([13]; at pH 5.8) | MIC50 ([14]; at pH 5.8, N = 12) | also measured
1 | N#Cc1c(N2C[C@@H]3NCCO[C@H]3C2)c(F)cc2c(=O)c(C(=O)O)cn(C3CC3)c12 [Finafloxacin, 8-cyano-1-cyclopropyl-6-fluoro-7-[(4aS,7aS)-hexahydropyrrolo[3,4-b]-1,4-oxazin-6(2H)-yl]-1,4-dihydro-4-oxo-3-quinolinecarboxylic acid] | 0.125 µg/mL (≈ 0.314 µM) | 0.016 µg/mL (≈ 0.0402 µM) | 1 µg/mL (≈ 2.51 µM) | 4 µg/mL (≈ 10 µM) | 8 µg/mL (≈ 20.1 µM) | 0.008 µg/mL (≈ 0.0201 µM) | 16 µg/mL (≈ 40.2 µM) | 0.25 µg/mL (≈ 0.628 µM) | 0.016 µg/mL (≈ 0.0402 µM) | 4 µg/mL (≈ 10 µM) | 0.25 µg/mL (≈ 0.628 µM) | 2 µg/mL (≈ 5.02 µM) | Pseudomonas CFU reductions [1]: inferior Pseudomonas CFU reductions compared to CILOXAN®; aqueous humor tissue concentration ([2]; rabbit, in vivo): comparable at later time points; corneal stroma tissue concentration ([2]; rabbit, in vivo): comparable at later time points; outer ear irritation [15]: No indications; outer ear irritation ([15]; listed as finafloxacin): did not demonstrate inner or outer ear irritation; corneal perfusion [16]: better corneal perfusion properties than the ciprofloxacin test composition and demonstrates less perfusion relative to the ofloxacin test composition; log reductions of Pseudomonas ([17]; 0.003% composition, two doses, FIG. 1a): 5-6 log; effect of preservative (BAC) on efficacy against Pseudomonas ([17]; 0.03% and 0.3% compositions with BAC compared to self-preserved compositions, FIG. 1d): does not affect the efficacy; CFU reduction ([17]; 0.03% composition, single dose study, FIG. 1c): 4 log CFU; log reductions of Pseudomonas ([17]; 0.03% composition, two doses, FIG. 1a): 5-6 log; performance compared to ciprofloxacin and ofloxacin compositions ([17]; 0.03%, single dose study, FIG. 1c): performed as well as the ciprofloxacin composition and better than the ofloxacin composition; eradication of Pseudomonas ([17]; single dose study, FIG. 1b): almost complete eradication of Pseudomonas; eradication of Pseudomonas ([17]; two separate doses, FIG. 1a): almost complete eradication of Pseudomonas; performance compared to ciprofloxacin ([17]; tests summarized in FIG. 1a, two doses): performed as well as ciprofloxacin
2 | CC1COc2c(N3CCN(C)CC3)c(F)cc3c(=O)c(C(=O)O)cn1c23 (stereo not shown) [Ofloxacin] | 1 µg/mL (≈ 2.77 µM) | 1 µg/mL (≈ 2.77 µM) | 4 µg/mL (≈ 11.1 µM) | 512 µg/mL (≈ 1420 µM) | 16 µg/mL (≈ 44.3 µM) | 0.031 µg/mL (≈ 0.0858 µM) | 256 µg/mL (≈ 708 µM) | 0.5 µg/mL (≈ 1.38 µM) | 1 µg/mL (≈ 2.77 µM) | 64 µg/mL (≈ 177 µM) | 2 µg/mL (≈ 5.53 µM) | 32 µg/mL (≈ 88.6 µM) | MIC50 ([3]; at pH 7): 0.25 µg/mL (≈ 0.692 µM); MIC50 ([4]; at pH 7, N = 8): 0.25 µg/mL (≈ 0.692 µM); MIC50 ([5]; at pH 7, N = 14): 2 µg/mL (≈ 5.53 µM); MIC50 ([6]; at pH 7, N = 10): 16 µg/mL (≈ 44.3 µM); MIC50 ([7]; at pH 7, N = 10): 128 µg/mL (≈ 354 µM); MIC50 ([8]; at pH 7): 0.031 µg/mL (≈ 0.0858 µM); MIC50 ([9]; at pH 7, N = 11): 64 µg/mL (≈ 177 µM); MIC50 ([10]; pH 7): 0.125 µg/mL (≈ 0.346 µM); MIC50 ([11]; at pH 7, N = 8): 0.25 µg/mL (≈ 0.692 µM); MIC50 ([12]; at pH 7, N = 12): 32 µg/mL (≈ 88.6 µM); MIC50 ([13]; at pH 7): 1 µg/mL (≈ 2.77 µM); MIC50 ([14]; at pH 7, N = 12): 16 µg/mL (≈ 44.3 µM)
3 | O=C(O)c1cn(C2CC2)c2cc(N3CCNCC3)c(F)cc2c1=O [Ciprofloxacin] | 0.25 µg/mL (≈ 0.754 µM) | 0.5 µg/mL (≈ 1.51 µM) | 1 µg/mL (≈ 3.02 µM) | 256 µg/mL (≈ 773 µM) | 128 µg/mL (≈ 386 µM) | 0.016 µg/mL (≈ 0.0483 µM) | 64 µg/mL (≈ 193 µM) | 0.125 µg/mL (≈ 0.377 µM) | 1 µg/mL (≈ 3.02 µM) | 128 µg/mL (≈ 386 µM) | 1 µg/mL (≈ 3.02 µM) | 128 µg/mL (≈ 386 µM) | corneal stroma tissue concentration ([2]; 45 μl of 0.3% test composition instilled bilaterally, topical, FIG. 3): greater concentrations immediately following instillation; aqueous humor tissue concentration ([2]; 45 μl of 0.3% test composition instilled bilaterally, topical, FIG. 4): greater concentrations immediately following instillation
